# Assay results taken from patent publication US20250319067A1, “Improved Pharmacokinetics of Tryptamine Prodrugs” (Reunion Neuroscience, Inc., priority 2023, published 2025).
# “Also recorded” adds a separate entry of the source. Counter-ions that a name gives are not always drawn.
# Legend:
# rats [1] = test: Behavioral safety pharmacology study in rats; type: in vivo; conditions: rat
# Experimental: In a behavioral study in rats, single SC administration of 10, 25 or 50 mg/kg RE104 HCl induced significant acute, and reversible neuro-pharmacological effects; however, all observations were attributed to exaggerated pharmacologic effects at the serotonin receptor of the test article (i.e., SS). The incidence and duration of observations were dose related.
# male rats = test: Respiratory function study in male rats; type: in vivo, rat; conditions: single SC 10, 25, and 50 mg/kg
# Experimental: In a respiratory function study in male rats, at single SC doses of 10, 25, and 50 mg/kg, RE104 HCl produced increases in respiration rate (8-28%) and decreases in tidal volume (28-30%) and minute volume (24-31%). All these changes were transient and returned to pre-dose values by the 6-hour post-dose reading. Based upon the small magnitude and the transient nature of these changes, the changes were not considered adverse.
# [2] = tested on: conscious telemetered beagle dogs; test: Cardiovascular study in conscious telemetered beagle dogs; type: in vivo; conditions: dog
# [3] = target: human ether-a-go-go-related gene (hERG) (Homo sapiens, UniProt Q12809); test: hERG tail current assay; type: cell-based; conditions: 30 μM as zwitterion (highest concentration tested)
# [4] = GLP 14-day extended single SC dose toxicity study in rats; conditions: female, Sprague Dawley, rat, in vivo, subcutaneous
# Experimental: (§1) In a GLP 14-day extended single SC dose toxicity study in rats, doses of 0 (PBS), 10, 25 and 75 mg/kg were evaluated. Animals were necropsied on Study Day 2 and Day 14 (also referred to as Recovery Day 13) post-dosing.
# (§2) A non-GLP dose range study was performed in the dog in order to determine an MTD. Single SC doses of 7.5, 15 and 20 mg/kg were evaluated.
# rats [5] = test: as above
# Experimental: as §1, §2
# healthy females [6] = test: Phase 1 FIH single ascending dose study: safety and tolerability (AEs); type: in vivo, human
# Experimental: (§3) The study was a double-blind, randomized, placebo-controlled Phase 1 single ascending dose study in up to 6 cohorts in healthy females. Eligibility was assessed during a screening period of up to 28 days prior to enrollment. For the treatment period, subjects were admitted to the clinical research unit (CRU) one day prior to the dosing (Day −1). On Day 1, all subjects will received the assigned SC dose of RE104 HCl or placebo in a fed state (after domiciling overnight and consuming a planned evening meal on Day −1 and morning meal on Day 1 while at the CRU). Subjects were allowed to select snacks from a planned menu from 4 hours following dosing. Subjects were discharged from the clinic on Day 2 (−24 hours post-dose) after all required study procedures were completed and if deemed medically fit. Subjects returned to the clinic on Day 10 (±2 days) for a follow up visit.
# Six (6) cohorts were enrolled in the study. Six (6) single doses were tested in 6 cohorts (Cohort 1 to Cohort 6) of 8 healthy female subjects (6 active and 2 placebo), as indicated in FIG. 1 and Table 3.
# The starting dose was 5.5 mg RE104 HCl. Sentinels were used in all cohorts. Within each cohort, 2 subjects were treated first: 1 subject received RE104 HCl and 1 subject received placebo.
# The study was monitored by a safety review committee (SRC). […] Safety, tolerability, and available PK data were assessed by the SRC between each cohort before ascending to the next dose level (Table 3). After each cohort dosing was complete, the SRC met to discuss dose escalation. Escalation to the next higher dose level occurred only after evaluation of the safety and tolerability data up to and including at least 24 hours post-dose of all evaluable subjects in the previous dose cohort. Available PK results were requested for determination of dose escalation, as deemed necessary.
# Dosing took place at a time point agreed to with the investigational pharmacy and acceptable to the investigator. RE104 HCl or placebo were administered as a SC injection in the upper arm. Subjects received RE104 HCl or placebo in a fed state. The time of administration of RE104 HCl or placebo was be recorded in the eCRF. The regimen used is outlined in Table 3.
# Within each cohort, 2 sentinel subjects were treated first: 1 subject received RE104 HCl and 1 subject received placebo. […] All drug administration was be done under direct medical supervision. Study subjects were overseen during the potentially psychoactive study drug period by professionals trained to monitor psychedelic experiences.
# healthy females [7] = test: Phase 1 FIH study: modified Drug Effect Questionnaire (DEQ-High); type: in vivo, human
# Experimental: as §3
# The Drug Effect Questionnaire (DEQ) Feel/High is widely used in studies of acute subjective response to a variety of substances, to assess two key aspects of subjective experience: (1) the strength of substance effects and (2) desirability of substance effects (Morean et al., 2013). The modified DEQ assesses the extent to which subjects (1) feel any substance effect(s) and (2) feel high. This version of the DEQ includes the following items: “Do you feel a drug effect right now?” (FEEL); “Are you high right now?” (HIGH). FIG. 2 sets out the modified DEQ that was used.
# The modified DEQ was used as an 11-point numeric rating scale (0-10) administered by a qualified staff member. The subjects were asked to verbally respond to indicate how strongly they feel the drug effect and how high they feel on the scale of 0-10 after being administered the study drug (Kollltveit et al., 2020).
# healthy females [8] = test: Phase 1 FIH study: Mystical Experience Questionnaire (MEQ30); type: in vivo, human; conditions: 33 mg
# Experimental: as §3
# The Mystical Experience Questionnaire (MEQ30) is a validated questionnaire that assesses individual episodes of a mystical experience produced by classic hallucinogens (Barrett et al. 2015). The validated MEQ30 uses thirty questions across 4 areas of experience: (i) Mystical (including items concerning internal unity, external unity, noetic quality, and sacredness); (ii) Positive mood; (iii) Transcendence of time and space; and (iv) Ineffability. The subjects will be asked to rate each item of the MEQ30 on a 6-point scale. FIG. 3 sets out the revised MEQ30 that was used.
# [9] = Prodrug cleavage in human plasma; type: in vitro ADME; conditions: human plasma (data not shown)
# Experimental: Mean values from 3 replicate assays are reported. See the Supplemental Methods for additional details.
# Triplicate aliquots (50 μL) of each spiked plasma solution were immediately added to 200 μL of ice-cold methanol/acetonitrile solution (50:50 v/v) containing the internal standards to generate time zero samples. Spiked plasma solutions were incubated at 37° C. in an orbital shaker set to 75 rpm, and 50-μL samples were taken in triplicate after 30 minutes and 1, 2, and 4 hours of incubation. Each sample was immediately added to 200 μL ofice-cold methanol/acetonitrile solution containing the internal standard(s) to terminate the reaction. Samples were mixed by vortex and then stored at −80° C. until analysis.
# Calibration standards were prepared in plasma for each species and analyzed in batches by LC-MS/MS. Sample batches consisted of 3 replicates of a system suitability standard (containing the analyte and internal standard), the appropriate calibration standards in ascending order including a blank sample without internal standard, a zero sample (with internal standard), and at least 6 nonzero standards and the assay samples, followed by the 3 replicates of the system suitability sample.
# male Wistar rats = test: Forced swim test (FST) in rats; type: in vivo, rat
# [10] = Metabolite profiling in monkey plasma after SC RE104; type: in vivo, cynomolgus monkey; conditions: pooled plasma 0 to 12 hours post dose, SC 0.5 mg/kg RE104
# Source text: Blood samples were centrifuged to obtain plasma.
# [11] = rat, oral Gymnopilus spectabilis (Chen et al.); cited from earlier work
# [12] = in vivo; cited from earlier work
# humans = conditions: humans; cited from earlier work
# Chain of human ether-a-go-go-related gene (hERG) (Q12809 whole entry): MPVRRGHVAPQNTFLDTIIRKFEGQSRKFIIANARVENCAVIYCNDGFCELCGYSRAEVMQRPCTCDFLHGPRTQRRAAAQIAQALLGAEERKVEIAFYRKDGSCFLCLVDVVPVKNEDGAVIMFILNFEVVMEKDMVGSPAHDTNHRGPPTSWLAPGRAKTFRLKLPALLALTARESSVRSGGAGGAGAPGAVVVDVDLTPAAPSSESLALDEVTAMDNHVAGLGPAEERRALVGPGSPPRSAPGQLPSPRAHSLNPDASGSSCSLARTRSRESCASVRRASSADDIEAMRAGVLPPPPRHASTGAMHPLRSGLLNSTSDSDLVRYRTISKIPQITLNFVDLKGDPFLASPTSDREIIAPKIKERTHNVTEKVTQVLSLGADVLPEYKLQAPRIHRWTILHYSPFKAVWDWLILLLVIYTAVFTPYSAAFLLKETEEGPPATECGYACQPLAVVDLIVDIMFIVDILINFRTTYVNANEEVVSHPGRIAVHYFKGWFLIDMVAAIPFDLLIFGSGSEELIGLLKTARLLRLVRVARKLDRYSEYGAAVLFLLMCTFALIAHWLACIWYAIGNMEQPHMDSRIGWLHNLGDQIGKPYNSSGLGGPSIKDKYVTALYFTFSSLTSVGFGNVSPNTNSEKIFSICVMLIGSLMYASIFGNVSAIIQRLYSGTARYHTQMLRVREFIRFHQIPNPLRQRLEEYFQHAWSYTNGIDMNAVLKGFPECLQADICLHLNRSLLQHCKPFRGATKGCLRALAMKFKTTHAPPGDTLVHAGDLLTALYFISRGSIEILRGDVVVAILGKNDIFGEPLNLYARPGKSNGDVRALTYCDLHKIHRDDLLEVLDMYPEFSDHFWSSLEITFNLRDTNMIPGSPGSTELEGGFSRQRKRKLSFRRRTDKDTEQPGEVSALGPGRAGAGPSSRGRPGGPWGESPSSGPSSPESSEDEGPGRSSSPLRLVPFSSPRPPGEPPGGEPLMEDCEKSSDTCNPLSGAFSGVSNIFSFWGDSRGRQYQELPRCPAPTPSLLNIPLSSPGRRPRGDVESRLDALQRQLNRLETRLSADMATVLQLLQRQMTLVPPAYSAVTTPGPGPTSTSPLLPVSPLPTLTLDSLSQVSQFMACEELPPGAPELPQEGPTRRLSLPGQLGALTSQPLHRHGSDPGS
structure (smiles),measurement,setting,value
"CC(C)N(CCc1c[nH]c2cccc(OC(=O)CCCC(=O)O)c12)C(C)C [RE104 HCl, 4-Glutaroyl-3-(2-diisopropylaminoethyl)-1H-indole hydrochloride]",time of neuro-pharmacological effects,rats [1]; single SC 10 mg/kg,effects were observed at 30 minutes (min) to 1 hour (h)
same,time of neuro-pharmacological effects,rats [1]; single SC 25 mg/kg,effects were observed to 6 h
same,time of neuro-pharmacological effects,rats [1]; single SC 50 mg/kg,effects were noted through 6 h post-dose but were resolved by 24 h
same,decreases in minute volume,male rats,24-31%
same,decreases in tidal volume,male rats,28-30%
same,increases in respiration rate,male rats,8-28%
same,"effects on cardiac rhythm, ECG parameters or body temperature","[2]; SC 1, 3 or 8 mg/kg",No significant biologically relevant effects
same,effect on heart rate and blood pressure,[2]; SC 3 and 8 mg/kg,Transient increases in heart rate and blood pressure
same,effect on heart rate and blood pressure,[2]; single SC 1 mg/kg,small transient increase in heart rate but had no effect on blood pressure
same,decrease in hERG current amplitude,[3],5.9 ± 1.6%
same,NOAEL at 14 days,[4],10 mg/kg
same,Fold Lower than Scaled NOAEL Dose,"rats [5]; Cohort 1, 5.5 mg RE104 HCl",19
same,Fold Lower than Scaled NOAEL Dose,"rats [5]; Cohort 2, 11 mg RE104 HCl",9.7
same,Fold Lower than Scaled NOAEL Dose,"rats [5]; Cohort 3, 22 mg RE104 HCl",4.9
same,Fold Lower than Scaled NOAEL Dose,"rats [5]; Cohort 4, 33 mg RE104 HCl",3.2
same,MRSD,"rats [5]; from rat NOAEL, 10-fold safety margin",9.7 mg
same,injection site adverse reactions,healthy females [6]; SC injection in the upper arm,No injection site adverse reactions were reported
same,serious AEs,healthy females [6]; doses up to and including 44 mg,no serious AEs
same,"blood pressure, vital sign, clinical laboratory, electrocardiogram findings","healthy females [6]; doses up to and including 44 mg, hydrochloride","no evident blood pressure effects; also recorded: no clinically significant vital sign, clinical laboratory, or electrocardiogram findings"
same,reduction of psychoactive experience relative to historical evidence with psilocybin,healthy females [7]; 33 mg,50%
same,time of peak activity,healthy females [7]; 33 mg SC,approx 1 h
same,MEQ total score and domain scores,healthy females [8],≥ 60%
"CN(C)CCc1c[nH]c2cccc(OC(=O)CCCC(=O)O)c12.Cl [RE109, psilocin-4-glutarate, reference compound]",cleavage to psilocin,[9],rapid cleavage to psilocin
same,climbing as share of escape behaviors,"male Wistar rats; rat FST, day 28",26%
same,swimming as share of escape behaviors,"male Wistar rats; rat FST, day 28",74%
same,mean swimming time relative to vehicle,"male Wistar rats; rat FST, single 1 mg/kg dose",significantly increased
same,mean immobility time vs vehicle,"male Wistar rats; rat FST, single 1 mg/kg dose, day 14 and 28",significant decrease
same,duration of distinctive serotonergic behaviors,"male Wistar rats; rat, dosing day, 1 mg/kg",approximately 3 hours
CC(C)N(CCc1c[nH]c2cccc(OC3OC(C(=O)O)C(O)C(O)C3O)c12)C(C)C (stereo not drawn) [glucuronidation of 4-OH-DiPT],share of the total peak area,[10],24.5%
CN(C)CCc1c[nH]c2cccc(O)c12 [psilocin],distribution half-life,[11],1.95 h
same,elimination half-life,[11],2.47 h
same,oral bioavailability in man,[12],approximately 53%
CN(C)CCc1c[nH]c2cccc(OP(=O)(O)O)c12 [psilocybin],duration of psychedelic state / effects,humans,6 to 8 h
